Results taken from PubChem BioAssay AID2305 (GlaxoSmithKline (GSK), 2010).
pIC50: −log10 of the molar value.

Test system: P. falciparum 3D7 growth, pLDH absorbance
Experiment: blood-stage malaria parasite growth potency – strain 3D7, dose response (AID 2305)

Compound | pIC50
CC1CN(Cc2cccc(-c3ccc(-c4nc5ccccc5[nH]4)cc3)c2)CC(C)O1 (centres undefined) | 6.07
COc1cc(Nc2ccnc3cc(-c4nccs4)ccc23)ccc1OCCCc1nc2ccccc2[nH]1 | 6.62
Cc1cc(NN=Cc2ccccc2Cl)c2ccccc2n1 | 6.05
O=C(NC1CCCc2ccccc21)C1CCCN(C(=O)c2ccc(O)c(-c3ccc(Cl)c(Cl)c3)c2)C1 (centres undefined) | 5.94
O=S(=O)(NCCN1CCCC1)c1ccc(-c2ccc(CNCc3ccsc3)cc2)cc1F | 6.09
O=C(Nc1ccc(OC2CCN(Cc3ccsc3)CC2)c(Cl)c1)c1cccs1 | 6.22
Cc1cc(F)ccc1[C@H]1CNCCN1C(=O)N(C)[C@@H](C)c1cc(C(F)(F)F)cc(C(F)(F)F)c1 | 6.64
CNC(=O)C1Cc2c([nH]c3cc(Br)ccc23)C2(CCN(CCc3ccccc3)CC2)N1 (centres undefined) | 6.14
Cc1cc(C(=O)CN2C(=O)NC3(CCCc4ccccc43)C2=O)c(C)n1Cc1ccco1 (centres undefined) | 5.96
CCN(CC)CCNc1ccnc2ccc3ccccc3c12 | 6.66
Cc1cc(N[C@@H](CC(C)C)C(=O)NCCOc2ccccc2)nc(Nc2ccccc2)n1 | 5.95
COc1cc(OC)cc(C(=O)N2CCOC(CCN3CCC(c4ccccc4)CC3)(c3ccc(Cl)c(Cl)c3)C2)c1 (centres undefined) | 6.36
COc1cc(F)c2ncc(Cl)c([C@H](O)CN3CCC(NCc4ccc5c(n4)NC(=O)CO5)CC3)c2c1 | 6.80
CC1(C)Cc2c(oc3ncn(CCn4cnc5oc6c(c5c4=N)CC(C)(C)SC6)c(=N)c23)CS1 | 6.14
Cc1cc(N)nc2ccc(CNCCc3ccccc3Br)cc12 | 6.92
Cc1nn(CC(C)C)c2sc(C(=O)Nc3nc(-c4ccccn4)cs3)cc12 | 6.02
O=C1O[C@H](c2ccccc2)[C@H](c2ccccc2)N(C(=O)OCc2ccccc2)[C@H]1Cc1ccccc1C1CCCC1 | 7.22
CCOC(=O)CCCOc1c(OC)cc(Cc2cnc(N)nc2N)cc1OC | 6.11
c1ccc2[nH]c(-c3ccc(-c4ccc(CNCC5CCCO5)cc4)s3)nc2c1 (centres undefined) | 6.06
CCOC(=O)c1ccc(N=C2SC(=Cc3cc(Br)ccc3O)C(=O)N2C)cc1 | 6.00
COc1ccc2cc(C(C)NC3CCN(c4cccc(NC(=O)c5ccncc5)c4)CC3)ccc2c1 (centres undefined) | 5.81
O=C(Nc1nc(-c2ccccn2)cc2ccccc12)c1cccc(Cl)c1 | 6.12
COc1ccc(NC(=O)N2CCc3ccc(OCCN(C(C)C)C(C)C)cc32)cc1C(F)(F)F | 6.01
c1ccc(Oc2ccc(Nc3ccnc4cc(-c5cccc(CN6CCOCC6)c5)ccc34)cc2)cc1 | 6.47
CCN(CC)CCOc1ccc(NC(=O)c2oc3ccccc3c2C=Cc2ccccc2)cc1 | 6.66

Compound | pIC50
COc1cccc(NC(=O)c2ccc(NCCCN3CCC(C)CC3)c([N+](=O)[O-])c2)c1 | 6.11
CCN1CCC(N(Cc2ccc(-c3ccc(C(F)(F)F)s3)cc2)C(=O)Cn2c(CCc3cccc(F)c3F)nc(=O)c3ccccc32)CC1 | 6.03
Cn1nc(-c2ccc(Cl)cc2)c2cc(C(=O)NCCN3CCOCC3)sc21 | 6.14
C[C@H](Cc1ccc(OCCCCCOc2ccc(C[C@@H](C)NC[C@H](O)c3cccc(Cl)c3)cc2)cc1)NC[C@H](O)c1cccc(Cl)c1 | 6.72
CC1CCc2c(C(=O)Nc3c(F)cc(F)cc3Br)csc2C1 (centres undefined) | 6.12
CC(CN(C)C)Oc1ccc2[nH]c(-c3cccc(OCc4ccccc4)c3)nc2c1C#N (centres undefined) | 6.39
Cc1cccc2[nH]c(-c3ccc(-c4cccc(CNCc5cccc(N)c5)c4)cc3)nc12 | 6.41
CCCCn1c(C(C)Oc2ccc(Cl)cc2Cl)nc2cc(S(N)(=O)=O)ccc21 (centres undefined) | 6.15
O=C(Nc1ccccc1)N(Cc1cccc(-c2ccc(CNCc3ccc4c(c3)OCO4)cc2)c1)C1CCN(Cc2ccccc2)CC1 | 6.48
Cc1cc(NC2CCN(CC3CCCCC3)CC2)nc(Nc2ccccc2Cl)n1 | 6.19
Cc1ccc(CN2CCCN(Cc3cccc(NC(=O)c4cc5ccccc5s4)c3)CC2)cc1C | 6.14
O=C(NC1CC1)c1cnc(N2CCCC(c3ccccc3)C2)c(Cl)c1 (centres undefined) | 6.10
c1ccc(CCNc2ccnc(Nc3ccc4n[nH]nc4c3)n2)cc1 | 6.07
NC(=O)c1ccc(NCC(=O)Nc2cccc(-c3cccc(-c4nc5ccc(C(F)(F)F)cc5[nH]4)c3)c2)cc1 | 6.57
CN1CCN(c2ccnc3ccc(NC(=O)Nc4ccc(Br)cc4)cc23)CC1 | 7.05
COc1cc(NC(=O)N2CCc3ccc(OCCC4CCCN4C)cc32)cc(C(F)(F)F)c1 (centres undefined) | 6.15
Fc1ccc(Nc2ccnc3cc(-c4ccc(CNCCN5CCOCC5)o4)ccc23)c(Cl)c1 | 6.72
CN1CCCN(Cc2cccc(-c3cccc(NC(=O)c4ccc(Cl)cc4)c3)c2)CC1 | 6.04
CCCCCCn1c2c(c(=N)c3c1CCC3)CCCC2 | 6.54
CC1(C)CCCN(C(=O)c2cccc(-n3nc(-c4ccc(Cl)cc4)cc3N)c2)C1 | 6.15
O=C1NC(=O)C(c2ccc(Cl)cc2)=C1Nc1cccc(S(=O)(=O)C(F)(F)F)c1 | 6.13
O=C(NC1CCN(CCN2CCc3ccccc3CC2)CC1)c1ccc(-c2ccc(C(F)(F)F)cc2)cc1 | 6.03
O=C(NC(=S)NCc1ccncc1)c1ccccc1 | 5.77
CCn1c(-c2cc(C)on2)nc2cnc(Oc3ccc(C(=O)N4CC(=O)N(C)C4C(C)(C)C)cc3)cc21 (centres undefined) | 5.74
Fc1cccc(COc2ccc(Nc3ncnc4ccc(C#C[C@H]5CCCN5)cc34)cc2Cl)c1 | 6.06

Compound | pIC50
CCCCCCCN1CCC(CCNc2ccnc3ccc(OC)cc23)CC1 | 6.02
CCN(CC)CCN(Cc1ccc(-c2ccc(Cl)cc2)cc1)C(=O)Cn1cc(CN(C)C)c(=O)nc1SCc1ccc(F)cc1 | 6.12
c1cncc(CCNCc2ccc(-c3ccc(CNC4Cc5ccccc5C4)cc3)cc2)c1 | 5.96
COc1ccc(NC(=O)CCNc2cc(C)nc(NCCc3ccc(F)cc3)n2)cc1 | 6.07
NOCCCOc1ccc(Cl)cc1 | 6.24
OCC1CCN(Cc2ccc(-c3cccc(-c4nc5ccc(C(F)(F)F)cc5[nH]4)c3)cc2)CC1 | 6.32
COCCNCc1ccc(-c2cccc(CNc3ccc(OC)cc3)c2)cc1 | 5.98
COc1c(C=NNc2nc(Nc3ccccc3)nc(Nc3ccccc3)n2)ccc(Br)c1O | 6.14
FC(F)(F)c1ccc2nc(-c3ccc(-c4ccc(CNCCN5CCNCC5)cc4)cc3)[nH]c2c1 | 5.95
CCOc1ccc(N(CC)S(=O)(=O)c2cc(Br)cc3c2N(C(=O)C2CC2)CC3)cc1 | 6.89
N#Cc1ccc(CN2CCCN(Cc3cccc(NC(=O)c4ccc(Cl)c(Cl)c4)c3)CC2)cc1 | 6.07
CCOC(=O)C(NC(=O)c1ccc([N+](=O)[O-])o1)C(C)C (centres undefined) | 5.97
CC(C)COc1ccc(Cl)cc1Cc1ccc(-c2nc3ccc(C(F)(F)F)cc3[nH]2)o1 | 6.07
COC(=O)Nc1cc(C(F)(F)F)ccc1N1CCC(CNS(=O)(=O)c2ccc(OC)cc2)CC1 | 6.60
CC(=O)Nc1nnc(SCc2c(C)cc(C(C)(C)C)cc2C)s1 | 6.15
CCN(CC)CCN(Cc1ccc(-c2ccc(C(F)(F)F)cc2)cc1)C(=O)Cn1c(CCc2ccc(F)cc2)nc(=O)c2sccc21 | 6.17
CCC(C)C#Cc1c(C)nc(N)nc1N (centres undefined) | 6.59
CN1CCC(Oc2ccc(CN3CC[C@H](NC(=O)c4ccc(Cl)c(Cl)c4)C3)cc2Cl)C1 (some centres undefined) | 6.06
CON=Cc1ccn(-c2ccc(O)c3c2C[C@H]2C[C@H]4[C@H](N(C)C)C(=O)C(C(N)=O)=C(O)[C@@]4(O)C(=O)C2=C3O)c1 | 6.11
Cc1ccc2[nH]c(-c3ccc(/C=C/C(=O)NC4CCN(Cc5ccccc5)CC4)cc3)nc2c1C | 6.20
O=c1cc(NCCC(CNCc2cc3ccccc3o2)NCc2cc(Br)cc(Br)c2)[nH]c2ccccc12 (centres undefined) | 5.92
N#Cc1ccc(NC2(C(=O)N3CCN(c4cccc(Cl)c4)CC3)CC2)c2ccccc12 | 5.94
O=C(Nc1cc(C(F)(F)F)cc(C(F)(F)F)c1)c1cccc([N+](=O)[O-])c1 | 6.05
O=C(N[C@@H](CC1CCCCC1)C(=O)NCCN1CCCC1)c1ccc(O)c(-c2cccc(C(F)(F)F)c2)c1 | 6.12
O=C(NC(CCCN1CCC2(CC1)OCc1ccccc12)c1ccc(Cl)c(Cl)c1)c1cc(C(F)(F)F)cc(C(F)(F)F)c1 (centres undefined) | 6.27

Compound | pIC50
CC(=O)c1ccc2cc(C(=O)NC3CCC(CCN4CCc5ccc(-c6noc(C)n6)cc5CC4)CC3)[nH]c2c1 (centres undefined) | 6.02
CCn1c2ccccc2c2cc(Cc3cnc(N)nc3N)ccc21 | 6.66
COc1ccc(Cc2c(C)nc3nc(N)nc(N)c3c2C)cc1OC | 6.04
CC(OC(=O)c1ccc(C(=O)NCC2CC2)cc1)C(C)(C)C (centres undefined) | 6.10
CN(C)CCNCc1cccc(-c2cccc(-c3nc4ccccc4[nH]3)c2)c1 | 6.11
COc1ccc(-n2c(=O)c3c(n4c(SC(C)C)nnc24)-c2ccccc2CC32CCCCC2)cc1 | 6.30
COc1ccc(CNCC(C)(C)c2nc(-c3ccc(Cl)c(O)c3)c(-c3ccncc3)[nH]2)cc1 | 6.44
COc1cc(-c2nnc(SCC(=O)Nc3cc(C)on3)n2C)cc(OC)c1O | 6.74
CCN(CCCN1CCCCC1)c1cc(C)nc(Nc2cc(C)ccc2C)n1 | 6.18
N#Cc1cccc(C(O)CN(Cc2ccccc2)Cc2ccccc2)c1 (centres undefined) | 5.90
Cc1cccc(Nc2nc(NCCCCN)nc3cc[nH]c(=O)c23)c1 | 6.14
O=C(NCC1CCN(CC2CCCCC2)C1)c1cc(-c2cccc(C(F)(F)F)c2)cs1 (centres undefined) | 6.13
CC(=O)Nc1ccc(OCCN(Cc2ccccc2C(F)(F)F)c2ccc(C#N)c(C(F)(F)F)c2)cc1 | 6.36
COc1cccc(C(=O)Nc2ccc(S(=O)(=O)c3cc4c(cc3OC)CCN(C)CC4)cc2)c1 | 5.96
Cn1nccc1C(=O)NCCNCc1ccc(-c2ccc(-c3nc4ccc(F)cc4[nH]3)cc2)cc1 | 6.52
CN1CCN(CC(=O)Nc2ccc(-c3csc(-c4nc5ccccc5[nH]4)c3)cc2)CC1 | 5.81
O=S(=O)(NCCN1CCCC1)c1ccc(-c2ccc(CNCc3ccc(F)cc3)cc2)cc1F | 5.89
CC(C)[C@H](NCC(=O)c1ccccc1)C(=O)O | 6.11
O=C(/C=C/c1ccc(Cl)c(Cl)c1)NCCCCCN1CCC(NC(=O)c2ccc(F)c(F)c2)CC1 | 6.10
CCOc1ccc(CCC(=O)O)cc1OCC | 5.99
Cn1c(N)c(N=O)c(=O)[nH]c1=O | 6.74
Cn1cnc(-c2ccc3c(c2)CCN(CCC2CCC(NC(=O)/C=C/c4ccc(F)cc4)CC2)CC3)c1 (centres undefined) | 6.05
CC[C@H]1CN2CCc3cc(OC)c(OC)cc3[C@@H]2C[C@@H]1C[C@H]1NCCc2cc(OC)c(OC)cc21 | 6.68
CCCCN(C(=O)c1ccccc1C)c1nnc(-c2ccccc2C)s1 | 6.03
